{"source": "paper PMC3037034", "about": "(ACS Medicinal Chemistry Letters, 2010)", "key": {"[1]": {"target": "T1, human COX-2 (Homo sapiens, UniProt P35354)", "T1 sequence (P35354 18-604)": "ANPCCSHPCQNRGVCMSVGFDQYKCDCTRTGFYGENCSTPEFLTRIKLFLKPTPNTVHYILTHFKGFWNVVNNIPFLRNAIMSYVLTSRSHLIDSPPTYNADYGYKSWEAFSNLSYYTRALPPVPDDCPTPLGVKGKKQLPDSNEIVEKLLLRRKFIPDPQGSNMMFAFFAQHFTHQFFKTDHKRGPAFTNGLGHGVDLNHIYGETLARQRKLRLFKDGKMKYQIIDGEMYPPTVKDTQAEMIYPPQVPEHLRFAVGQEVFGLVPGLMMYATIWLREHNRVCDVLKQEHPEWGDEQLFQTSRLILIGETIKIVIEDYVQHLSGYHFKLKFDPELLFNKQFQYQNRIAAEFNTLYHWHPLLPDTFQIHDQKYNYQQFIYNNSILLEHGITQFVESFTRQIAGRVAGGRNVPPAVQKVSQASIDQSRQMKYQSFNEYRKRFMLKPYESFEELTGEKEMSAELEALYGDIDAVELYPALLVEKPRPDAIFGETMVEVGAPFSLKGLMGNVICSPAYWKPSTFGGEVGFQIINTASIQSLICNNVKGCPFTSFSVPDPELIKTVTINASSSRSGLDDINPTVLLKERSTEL", "assay": "purified COX-2 inhibition, TLC assay", "format": "biochemical", "conditions": "for COX-2 inhibitory activity (in words): purified COX-2"}, "[2]": {"target": "T2, ovine COX-1 (Ovis aries, UniProt P05979)", "T2 sequence (P05979 25-600)": "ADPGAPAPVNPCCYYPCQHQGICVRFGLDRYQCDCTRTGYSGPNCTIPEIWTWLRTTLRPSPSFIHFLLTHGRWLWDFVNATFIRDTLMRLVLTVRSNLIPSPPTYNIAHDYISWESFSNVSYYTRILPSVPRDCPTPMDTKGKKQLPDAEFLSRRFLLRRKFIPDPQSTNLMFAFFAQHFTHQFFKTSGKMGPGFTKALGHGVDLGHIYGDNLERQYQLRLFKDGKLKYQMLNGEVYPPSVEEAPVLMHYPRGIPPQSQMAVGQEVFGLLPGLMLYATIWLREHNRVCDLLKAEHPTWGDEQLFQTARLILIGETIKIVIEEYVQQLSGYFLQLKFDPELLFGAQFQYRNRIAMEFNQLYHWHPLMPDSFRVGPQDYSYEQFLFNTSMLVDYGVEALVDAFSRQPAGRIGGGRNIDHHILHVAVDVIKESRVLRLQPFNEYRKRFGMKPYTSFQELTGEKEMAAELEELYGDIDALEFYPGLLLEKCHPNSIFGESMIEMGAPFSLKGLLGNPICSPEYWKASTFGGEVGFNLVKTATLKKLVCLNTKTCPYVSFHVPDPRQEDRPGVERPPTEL", "assay": "purified COX-1 inhibition, TLC assay", "format": "biochemical", "conditions": "at concentrations up to 5 μM"}}}
{"smiles": "NS(=O)(=O)c1ccc(-n2nc(CCC(=O)O)cc2-c2cccc(I)c2)cc1", "note": "[compound 5]", "values": [{"measurement": "IC50", "setting": "[1]", "result": "> 4000", "unit": "nM"}, {"measurement": "COX-2 inhibitory activity (in words)", "setting": "[1]", "result": "inactive"}]}
{"smiles": "COC(=O)c1cc(-c2cccc(I)c2)n(-c2ccc(S(C)(=O)=O)cc2)n1", "note": "[compound 9]", "values": [{"measurement": "IC50", "setting": "[1]", "result": "> 4000", "unit": "nM"}]}
{"smiles": "COC(=O)c1cc(-c2ccc(I)cc2)n(-c2ccc(S(N)(=O)=O)cc2)n1", "note": "[compound 3]", "values": [{"measurement": "IC50", "setting": "[1]", "result": 560, "unit": "nM"}]}
{"smiles": "COC(=O)c1cc(-c2cccc(I)c2)n(-c2ccc(S(N)(=O)=O)cc2)n1", "note": "[compound 2]", "values": [{"measurement": "IC50", "setting": "[1]", "result": 3800, "unit": "nM"}]}
{"smiles": "NS(=O)(=O)c1ccc(-n2nc(CCC(=O)O)cc2-c2ccc(I)cc2)cc1", "note": "[compound 6]", "values": [{"measurement": "IC50", "setting": "[1]", "result": "> 4000", "unit": "nM"}, {"measurement": "COX-2 inhibitory activity (in words)", "setting": "[1]", "result": "inactive"}]}
{"smiles": "CCOC(=O)c1cc(-c2ccc(I)cc2)n(-c2ccc(S(N)(=O)=O)cc2)n1", "note": "[compound 4]", "values": [{"measurement": "IC50", "setting": "[1]", "result": 260, "unit": "nM"}]}
{"smiles": "CS(=O)(=O)c1ccc(-n2nc(C(F)(F)F)cc2-c2ccc(I)cc2)cc1", "note": "[compound 8, 5-(4-iodophenyl)-1-{4-(methylsulfonyl)phenyl}-3-(trifluoromethyl)-1H-pyrazole]", "values": [{"measurement": "inhibition of COX-1 (in words)", "setting": "[2]", "result": "without inhibition"}, {"measurement": "IC50", "setting": "[1]", "result": 50, "unit": "nM"}]}
{"smiles": "CS(=O)(=O)c1ccc(-n2nc(C(F)(F)F)cc2-c2cccc(I)c2)cc1", "note": "[compound 7]", "values": [{"measurement": "IC50", "setting": "[1]", "result": 320, "unit": "nM"}]}
{"smiles": "COC(=O)c1cc(-c2ccc(I)cc2)n(-c2ccc(S(C)(=O)=O)cc2)n1", "note": "[compound 10]", "values": [{"measurement": "IC50", "setting": "[1]", "result": 3000, "unit": "nM"}]}
